In ChEMBL document CHEMBL4396916, “Novel potent substituted 4-amino-2-thiopyrimidines as dual VEGFR-2 and BRAF kinase inhibitors” (Eur J Med Chem, 2019):

Tests used:
[1] = target: Vascular endothelial growth factor receptor 2 (Homo sapiens, UniProt P35968); assay: Inhibition of human N-terminal GST tagged VEGFR-2 expressed in baculovirus infected Sf9 cells using poly (Glu,Tyr) 4:1 as substrate in presence of ATP by Kinase-Glo luminescence assay
CCRF-CEM = assay: Growth inhibition of human CCRF-CEM cells at 10 uM incubated for 48 hrs by sulforhodamine B assay relative to control; assay type: functional; conditions: read-out: GI
K562 = assay: Growth inhibition of human K562 cells at 10 uM incubated for 48 hrs by sulforhodamine B assay relative to control; assay type: functional; conditions: K562, 48 h, read-out: GI
MOLT-4 = assay: Growth inhibition of human MOLT4 cells at 10 uM incubated for 48 hrs by sulforhodamine B assay relative to control; assay type: functional; conditions: MOLT-4, 48 h, read-out: GI
RPMI-8226 = assay: Growth inhibition of human RPMI8226 cells at 10 uM incubated for 48 hrs by sulforhodamine B assay relative to control; assay type: functional; conditions: RPMI-8226, 48 h, read-out: GI
SR = assay: Growth inhibition of human SR cells at 10 uM incubated for 48 hrs by sulforhodamine B assay relative to control; assay type: functional; conditions: read-out: GI
EKVX = assay: Growth inhibition of human EKVX cells at 10 uM incubated for 48 hrs by sulforhodamine B assay relative to control; assay type: functional; conditions: read-out: GI
HOP-92 = assay: Growth inhibition of human HOP92 cells at 10 uM incubated for 48 hrs by sulforhodamine B assay relative to control; assay type: functional; conditions: HOP-92, 48 h, read-out: GI
NCI-H226 = assay: Growth inhibition of human NCI-H226 cells at 10 uM incubated for 48 hrs by sulforhodamine B assay relative to control; assay type: functional; conditions: NCI-H226, 48 h, read-out: GI
NCI-H23 = assay: Growth inhibition of human NCI-H23 cells at 10 uM incubated for 48 hrs by sulforhodamine B assay relative to control; assay type: functional; conditions: NCI-H23, 48 h, read-out: GI
NCI-H460 = assay: Growth inhibition of human NCI-H460 cells at 10 uM incubated for 48 hrs by sulforhodamine B assay relative to control; assay type: functional; conditions: NCI-H460, 48 h, read-out: GI
NCI-H522 = assay: Growth inhibition of human NCI-H522 cells at 10 uM incubated for 48 hrs by sulforhodamine B assay relative to control; assay type: functional; conditions: NCI-H522, 48 h, read-out: GI
HCT-116 = assay: Growth inhibition of human HCT116 cells at 10 uM incubated for 48 hrs by sulforhodamine B assay relative to control; assay type: functional; conditions: HCT-116, 48 h, read-out: GI
HCT-15 = assay: Growth inhibition of human HCT15 cells at 10 uM incubated for 48 hrs by sulforhodamine B assay relative to control; assay type: functional; conditions: HCT-15, 48 h, read-out: GI
HT-29 = assay: Growth inhibition of human HT-29 cells at 10 uM incubated for 48 hrs by sulforhodamine B assay relative to control; assay type: functional; conditions: HT-29, 48 h, read-out: GI
KM12 = assay: Growth inhibition of human KM12 cells at 10 uM incubated for 48 hrs by sulforhodamine B assay relative to control; assay type: functional; conditions: KM12, 48 h, read-out: GI
SF-539 = assay: Growth inhibition of human SF539 cells at 10 uM incubated for 48 hrs by sulforhodamine B assay relative to control; assay type: functional; conditions: SF-539, 48 h, read-out: GI
SNB-19 = assay: Growth inhibition of human SNB19 cells at 10 uM incubated for 48 hrs by sulforhodamine B assay relative to control; assay type: functional; conditions: SNB-19, 48 h, read-out: GI
SNB-75 = assay: Growth inhibition of human SNB75 cells at 10 uM incubated for 48 hrs by sulforhodamine B assay relative to control; assay type: functional; conditions: SNB-75, 48 h, read-out: GI
LOX IMVI = assay: Growth inhibition of human LOXIMVI cells at 10 uM incubated for 48 hrs by sulforhodamine B assay relative to control; assay type: functional; conditions: read-out: GI
M14 = assay: Growth inhibition of human M14 cells at 10 uM incubated for 48 hrs by sulforhodamine B assay relative to control; assay type: functional; conditions: M14, 48 h, read-out: GI
MDA-MB-435 = assay: Growth inhibition of human MDA-MB-435 cells at 10 uM incubated for 48 hrs by sulforhodamine B assay relative to control; assay type: functional; conditions: MDA-MB-435, 48 h, read-out: GI
SK-MEL-5 = assay: Growth inhibition of human SK-MEL-5 cells at 10 uM incubated for 48 hrs by sulforhodamine B assay relative to control; assay type: functional; conditions: SK-MEL-5, 48 h, read-out: GI
UACC-62 = assay: Growth inhibition of human UACC62 cells at 10 uM incubated for 48 hrs by sulforhodamine B assay relative to control; assay type: functional; conditions: UACC-62, 48 h, read-out: GI
IGROV-1 = assay: Growth inhibition of human IGROV1 cells at 10 uM incubated for 48 hrs by sulforhodamine B assay relative to control; assay type: functional; conditions: IGROV-1, 48 h, read-out: GI
OVCAR-3 = assay: Growth inhibition of human OVCAR3 cells at 10 uM incubated for 48 hrs by sulforhodamine B assay relative to control; assay type: functional; conditions: OVCAR-3, 48 h, read-out: GI
OVCAR-4 = assay: Growth inhibition of human OVCAR4 cells at 10 uM incubated for 48 hrs by sulforhodamine B assay relative to control; assay type: functional; conditions: OVCAR-4, 48 h, read-out: GI
OVCAR-8 = assay: Growth inhibition of human OVCAR8 cells at 10 uM incubated for 48 hrs by sulforhodamine B assay relative to control; assay type: functional; conditions: OVCAR-8, 48 h, read-out: GI
NCI/ADR-RES = assay: Growth inhibition of human NCI/ADR-RES cells at 10 uM incubated for 48 hrs by sulforhodamine B assay relative to control; assay type: functional; conditions: read-out: GI
A498 = assay: Growth inhibition of human A498 cells at 10 uM incubated for 48 hrs by sulforhodamine B assay relative to control; assay type: functional; conditions: A498, 48 h, read-out: GI
CAKI-1 = assay: Growth inhibition of human Caki1 cells at 10 uM incubated for 48 hrs by sulforhodamine B assay relative to control; assay type: functional; conditions: CAKI-1, 48 h, read-out: GI
RXF 393 = assay: Growth inhibition of human RXF393 cells at 10 uM incubated for 48 hrs by sulforhodamine B assay relative to control; assay type: functional; conditions: RXF 393, 48 h, read-out: GI
SN12C = assay: Growth inhibition of human SN12C cells at 10 uM incubated for 48 hrs by sulforhodamine B assay relative to control; assay type: functional; conditions: read-out: GI
UO-31 = assay: Growth inhibition of human UO31 cells at 10 uM incubated for 48 hrs by sulforhodamine B assay relative to control; assay type: functional; conditions: UO-31, 48 h, read-out: GI
PC-3 = assay: Growth inhibition of human PC3 cells at 10 uM incubated for 48 hrs by sulforhodamine B assay relative to control; assay type: functional; conditions: PC-3, 48 h, read-out: GI
MCF7 [2] = assay: Growth inhibition of human MCF7 cells at 10 uM incubated for 48 hrs by sulforhodamine B assay relative to control; assay type: functional; conditions: MCF7, 48 h, read-out: GI
MDA-MB-231 = assay: Growth inhibition of human MDA-MB-231 cells at 10 uM incubated for 48 hrs by sulforhodamine B assay relative to control; assay type: functional; conditions: MDA-MB-231, 48 h, read-out: GI
Hs-578T = assay: Growth inhibition of human Hs578T cells at 10 uM incubated for 48 hrs by sulforhodamine B assay relative to control; assay type: functional; conditions: read-out: GI
BT-549 = assay: Growth inhibition of human BT549 cells at 10 uM incubated for 48 hrs by sulforhodamine B assay relative to control; assay type: functional; conditions: BT-549, 48 h, read-out: GI
T47D [3] = assay: Growth inhibition of human T47D cells at 10 uM incubated for 48 hrs by sulforhodamine B assay relative to control; assay type: functional; conditions: read-out: GI
MDA-MB-468 = assay: Growth inhibition of human MDA-MB-468 cells at 10 uM incubated for 48 hrs by sulforhodamine B assay relative to control; assay type: functional; conditions: MDA-MB-468, 48 h, read-out: GI
MCF7 [4] = assay: Cytotoxicity against human MCF7 cells expressing VEGFR2 and wild type BRAF measured after 48 hrs by sulforhodamine B assay; assay type: functional, cell-based; conditions: MCF7, 48 h
T47D [5] = assay: Cytotoxicity against human T47D cells expressing wild type BRAF measured after 48 hrs by sulforhodamine B assay; assay type: functional, cell-based
MCF7 [6] = assay: Inhibition of VEGFR2 level in human MCF7 cells at 10 uM measured after 48 hrs by ELISA relative to control; assay type: functional; conditions: MCF7, 48 h

Chain of Vascular endothelial growth factor receptor 2 (P35968 whole entry): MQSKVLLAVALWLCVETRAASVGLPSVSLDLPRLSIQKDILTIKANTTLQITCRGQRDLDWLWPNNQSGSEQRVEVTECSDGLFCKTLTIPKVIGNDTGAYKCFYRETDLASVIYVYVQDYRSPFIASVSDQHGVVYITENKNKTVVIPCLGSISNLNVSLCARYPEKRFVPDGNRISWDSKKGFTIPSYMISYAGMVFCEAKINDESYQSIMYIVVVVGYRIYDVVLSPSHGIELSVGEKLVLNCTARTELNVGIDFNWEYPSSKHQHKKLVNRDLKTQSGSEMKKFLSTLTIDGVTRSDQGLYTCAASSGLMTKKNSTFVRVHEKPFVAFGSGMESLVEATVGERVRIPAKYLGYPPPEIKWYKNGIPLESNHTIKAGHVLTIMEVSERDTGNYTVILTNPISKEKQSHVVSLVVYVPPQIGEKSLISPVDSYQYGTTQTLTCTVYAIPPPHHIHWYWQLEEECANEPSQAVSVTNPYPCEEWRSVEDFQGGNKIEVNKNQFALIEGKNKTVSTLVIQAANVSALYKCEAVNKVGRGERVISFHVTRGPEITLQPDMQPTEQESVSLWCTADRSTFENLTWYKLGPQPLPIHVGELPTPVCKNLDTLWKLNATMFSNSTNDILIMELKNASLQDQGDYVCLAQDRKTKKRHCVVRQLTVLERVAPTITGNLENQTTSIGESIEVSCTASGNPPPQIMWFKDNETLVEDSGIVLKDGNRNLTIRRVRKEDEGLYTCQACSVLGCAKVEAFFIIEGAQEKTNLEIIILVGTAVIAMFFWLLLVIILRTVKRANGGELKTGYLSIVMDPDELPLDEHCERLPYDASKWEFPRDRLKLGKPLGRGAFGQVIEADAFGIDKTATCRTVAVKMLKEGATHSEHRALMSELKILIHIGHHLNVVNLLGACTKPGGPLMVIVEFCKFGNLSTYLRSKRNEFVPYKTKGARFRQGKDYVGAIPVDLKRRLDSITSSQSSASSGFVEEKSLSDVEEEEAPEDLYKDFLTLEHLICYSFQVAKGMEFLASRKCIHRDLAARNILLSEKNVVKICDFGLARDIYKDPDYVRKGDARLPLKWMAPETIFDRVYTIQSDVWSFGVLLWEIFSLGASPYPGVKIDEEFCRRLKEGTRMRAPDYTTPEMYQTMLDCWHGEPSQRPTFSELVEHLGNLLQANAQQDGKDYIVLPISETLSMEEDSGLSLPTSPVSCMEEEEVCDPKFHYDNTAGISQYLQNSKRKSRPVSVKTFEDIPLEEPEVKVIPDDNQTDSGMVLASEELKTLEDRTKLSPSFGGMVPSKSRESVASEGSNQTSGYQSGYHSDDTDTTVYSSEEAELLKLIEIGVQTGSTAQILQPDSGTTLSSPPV

COc1ccc(C(=O)CSc2nccc(Nc3cccc(C(C)=O)c3)n2)cc1
IC50 [1]: 0.42 µM | inhibition of growth at 10 µM (CCRF-CEM): 46% | inhibition of growth at 10 µM (K562): 37% | inhibition of growth at 10 µM (MOLT-4): 53% | inhibition of growth at 10 µM (RPMI-8226): 42% | inhibition of growth at 10 µM (SR): 35% | inhibition of growth at 10 µM (EKVX): 29% | inhibition of growth at 10 µM (HOP-92): 24% | inhibition of growth at 10 µM (NCI-H226): 35% | inhibition of growth at 10 µM (NCI-H23): 19% | inhibition of growth at 10 µM (NCI-H460): 14% | inhibition of growth at 10 µM (NCI-H522): 37% | inhibition of growth at 10 µM (HCT-116): 23% | inhibition of growth at 10 µM (HCT-15): 22% | inhibition of growth at 10 µM (HT-29): 11% | inhibition of growth at 10 µM (KM12): 15% | inhibition of growth at 10 µM (SF-539): 12% | inhibition of growth at 10 µM (SNB-19): 13% | inhibition of growth at 10 µM (SNB-75): 31% | inhibition of growth at 10 µM (LOX IMVI): 23% | inhibition of growth at 10 µM (M14): 15% | inhibition of growth at 10 µM (MDA-MB-435): 15% | inhibition of growth at 10 µM (SK-MEL-5): 22% | inhibition of growth at 10 µM (UACC-62): 35% | inhibition of growth at 10 µM (IGROV-1): 18% | inhibition of growth at 10 µM (OVCAR-3): 12% | inhibition of growth at 10 µM (OVCAR-4): 19% | inhibition of growth at 10 µM (OVCAR-8): 32% | inhibition of growth at 10 µM (NCI/ADR-RES): 40% | inhibition of growth at 10 µM (A498): 22% | inhibition of growth at 10 µM (CAKI-1): 35% | inhibition of growth at 10 µM (RXF 393): 14% | inhibition of growth at 10 µM (SN12C): 22% | inhibition of growth at 10 µM (UO-31): 55% | inhibition of growth at 10 µM (PC-3): 37% | inhibition of growth at 10 µM (MCF7 [2]): 11% | inhibition of growth at 10 µM (MDA-MB-231): 27% | inhibition of growth at 10 µM (Hs-578T): 19% | inhibition of growth at 10 µM (BT-549): 27% | inhibition of growth at 10 µM (T47D [3]): 45% | inhibition of growth at 10 µM (MDA-MB-468): 34% | IC50 (MCF7 [4]): 67.1 µM | IC50 (T47D [5]): 13.2 µM | inhibition at 10 µM (MCF7 [6]): 16%
